From ChEMBL document CHEMBL5614422, “Design, synthesis and biological evaluation of N-salicyloyl tryptamine derivatives as multifunctional neuroprotectants for the treatment of ischemic stroke” (Eur J Med Chem, 2024)
Converted amounts (≈) assume the structure as drawn.

How the values were obtained:
[1] = Cytotoxicity against mouse HT-22 cells assessed as cell viability incubated for 24 hrs by CCK-8 method; assay type: toxicity, cell-based
HT-22 [2] = test: Neuroprotective activity against OGD/R induced cell damage in mouse HT-22 cells assessed as cell viability at 10 uM measured after 24 hrs by MTT assay (reference value: 69.01 +/-2.90%); assay type: functional; details: read-out: Activity
[3] = Cytotoxicity against mouse BV-2 cells assessed as cell viability incubated for 24 hrs by CCK-8 method; assay type: toxicity, cell-based
HT-22 [4] = test: Antioxidant activity against OGD/R induced damage in mouse HT-22 cells assessed as decrease in proportion of mitochondrial depolarized cells at 1 uM by JC-1 fluorescence based flow cytometry analysis (reference value: 91.7%); assay type: functional; parameters: scale not given: the % may be the effect or the level left
HT-22 [5] = test: Antioxidant activity against OGD/R induced damage in mouse HT-22 cells assessed as decrease in proportion of mitochondrial depolarized cells at 5 uM by JC-1 fluorescence based flow cytometry analysis (reference value: 91.7%); assay type: functional; parameters: scale not given: the % may be the effect or the level left
HT-22 [6] = test: Antioxidant activity against OGD/R induced damage in mouse HT-22 cells assessed as decrease in proportion of mitochondrial depolarized cells at 10 uM by JC-1 fluorescence based flow cytometry analysis (reference value: 91.7%); assay type: functional; parameters: scale not given: the % may be the effect or the level left
HT-22 [7] = test: Anti-apoptotic activity in OGD/R mouse HT-22 cells assessed as viable cells at 1 uM by annexin V-FITC and PI staining based flow cytometry analysis (reference value: 83.09%); assay type: functional; details: read-out: Activity
HT-22 [8] = test: Anti-apoptotic activity in OGD/R mouse HT-22 cells assessed as viable cells at 5 uM by annexin V-FITC and PI staining based flow cytometry analysis (reference value: 83.09%); assay type: functional; details: read-out: Activity
HT-22 [9] = test: Anti-apoptotic activity in OGD/R mouse HT-22 cells assessed as viable cells at 10 uM by annexin V-FITC and PI staining based flow cytometry analysis (reference value: 83.09%); assay type: functional; details: read-out: Activity
HT-22 [10] = test: Anti-apoptotic activity in OGD/R mouse HT-22 cells assessed as early apoptotic cells at 1 uM by annexin V-FITC and PI staining based flow cytometry analysis (reference value: 9.51%); assay type: functional
HT-22 [11] = test: Anti-apoptotic activity in OGD/R mouse HT-22 cells assessed as early apoptotic cells at 5 uM by annexin V-FITC and PI staining based flow cytometry analysis (reference value: 9.51%); assay type: functional
HT-22 [12] = test: Anti-apoptotic activity in OGD/R mouse HT-22 cells assessed as early apoptotic cells at 10 uM by annexin V-FITC and PI staining based flow cytometry analysis (reference value: 9.51%); assay type: functional
HT-22 [13] = test: Anti-apoptotic activity in OGD/R mouse HT-22 cells assessed as late apoptotic cells at 1 uM by annexin V-FITC and PI staining based flow cytometry analysis (reference value: 7.26%); assay type: functional
HT-22 [14] = test: Anti-apoptotic activity in OGD/R mouse HT-22 cells assessed as late apoptotic cells at 5 uM by annexin V-FITC and PI staining based flow cytometry analysis (reference value: 7.26%); assay type: functional
HT-22 [15] = test: Anti-apoptotic activity in OGD/R mouse HT-22 cells assessed as late apoptotic cells at 10 uM by annexin V-FITC and PI staining based flow cytometry analysis (reference value: 7.26%); assay type: functional
HT-22 [16] = test: Anti-apoptotic activity in OGD/R mouse HT-22 cells assessed as necrotic cells at 1 uM by annexin V-FITC and PI staining based flow cytometry analysis (reference value: 0.14%); assay type: functional
HT-22 [17] = test: Anti-apoptotic activity in OGD/R mouse HT-22 cells assessed as necrotic cells at 5 uM by annexin V-FITC and PI staining based flow cytometry analysis (reference value: 0.14%); assay type: functional
HT-22 [18] = test: Anti-apoptotic activity in OGD/R mouse HT-22 cells assessed as necrotic cells at 10 uM by annexin V-FITC and PI staining based flow cytometry analysis (reference value: 0.14%); assay type: functional
[19] = Permeability of the compound by PAMPA method; assay type: ADME; details: read-out: permeability
[20] = Drug concentration in male Sprague-Dawley rat plasma at 60 mg/kg, ip measured after 0.5 hrs by LC-MS analysis; assay type: ADME, organism-based
[21] = Drug concentration in male Sprague-Dawley rat Cerebrospinal fluid at 60 mg/kg, ip measured after 0.5 hrs by LC-MS analysis; assay type: ADME, organism-based; details: read-out: Ct
[22] = Drug concentration in male Sprague-Dawley rat plasma at 60 mg/kg, ip measured after 2 hrs by LC-MS analysis; assay type: ADME, organism-based
[23] = Drug concentration in male Sprague-Dawley rat Cerebrospinal fluid at 60 mg/kg, ip measured after 2 hrs by LC-MS analysis; assay type: ADME, organism-based; details: read-out: Ct
[24] = Drug concentration in male Sprague-Dawley rat plasma at 60 mg/kg, ip measured after 4 hrs by LC-MS analysis; assay type: ADME, organism-based
[25] = Drug concentration in male Sprague-Dawley rat Cerebrospinal fluid at 60 mg/kg, ip measured after 4 hrs by LC-MS analysis; assay type: ADME, organism-based; details: read-out: Ct
[26] = Aqueous solubility of the compound incubated for 72 hrs under shaking condition by HPLC analysis; assay type: physicochemical
[27] = Half life in 12 hrs fasted male Sprague-Dawley rat at 50 mg/kg measured upto 48 hrs by LC-MS/MS analysis; assay type: ADME, organism-based; details: in vivo
[28] = Acute toxicity in Kunming mouse assessed as effect on body weight at 500 mg/kg, ip measured after 14 days; assay type: organism-based; details: in vivo, 336 h, time 14 day
[29] = Acute toxicity in Kunming mouse assessed as effect on heart at 500 mg/kg, ip measured after 14 days by H and E staining based analysis; assay type: organism-based; details: in vivo, 336 h, time 14 day
[30] = Acute toxicity in Kunming mouse assessed as effect on liver at 500 mg/kg, ip measured 14 days by H and E staining based analysis; assay type: organism-based; details: in vivo, 336 h, time 14 day
[31] = Acute toxicity in Kunming mouse assessed as effect on spleen at 500 mg/kg, ip measured after 14 days by H and E staining based analysis; assay type: organism-based; details: in vivo, 336 h, time 14 day
[32] = Acute toxicity in Kunming mouse assessed as effect on lung at 500 mg/kg, ip measured after 14 days by H and E staining based analysis; assay type: organism-based; details: in vivo, 336 h, time 14 day
[33] = Acute toxicity in Kunming mouse assessed as effect on kidney at 500 mg/kg, ip measured after 14 days by H and E staining based analysis; assay type: organism-based; details: in vivo, 336 h, time 14 day

Cc1ccc(C(=O)NCCc2c[nH]c3ccc(N(C)C)cc23)c(O)c1
IC50 at 24 h [1]: > 100 µM | viability at 10 µM (HT-22 [2]): 92.7% | IC50 at 24 h [3]: > 100 µM | Activity (HT-22 [4]): 81.7% | Activity (HT-22 [5]): 54% | Activity (HT-22 [6]): 49.2% | viability at 1 µM (HT-22 [7]): 88% | viability at 5 µM (HT-22 [8]): 93.7% | viability at 10 µM (HT-22 [9]): 93.6% | Activity (HT-22 [10]): 5.95% | Activity (HT-22 [11]): 2.34% | Activity (HT-22 [12]): 2.01% | Activity (HT-22 [13]): 5.84% | Activity (HT-22 [14]): 3.67% | Activity (HT-22 [15]): 3.37% | Activity (HT-22 [16]): 0.15% | Activity (HT-22 [17]): 0.33% | Activity (HT-22 [18]): 1.06% | Papp [19]: 8.29 ×10⁻⁶ cm/s | concentration at 0.5 h [20]: 4120 ng/mL | concentration at 0.5 h [21]: 53 ng/mL | concentration at 2 h [22]: 633 ng/mL | concentration at 2 h [23]: 30 ng/mL | concentration at 4 h [24]: 186 ng/mL | concentration at 4 h [25]: 20 ng/mL | solubility thermodynamic at 72 h [26]: 40 µg/mL (≈ 119 µM) | half-life [27]: 4.56 h

Cc1ccc(C(=O)NCCc2c[nH]c3ccc(N(C)C)cc23)c(O)c1.Cl
solubility thermodynamic at 72 h [26]: 2300 µg/mL | half-life [27]: 3.96 h | Activity [28]: Non-Toxic | Activity [29]: Non-Toxic | Activity [30]: Non-Toxic | Activity [31]: Non-Toxic | Activity [32]: Non-Toxic | Activity [33]: Non-Toxic
